The values below come from paper PMC6953423 (Journal of medicinal chemistry, 2019).

One series has as its system rats. The note with it: cited from earlier work; for seeking drugs of abuse (cocaine or methamphetamine) after a period of extinction: rats pretreated.
A further series can be described thus: Kinetic solubility. The series is classed as physicochemical. The conditions noted are these: phosphate buffer, mean ± SD.
For series [1] the following is noted: cited from earlier work.
The target of series [2] is T1, CB1 (Homo sapiens, UniProt P21554). As to the kind of experiment: CB1 calcium mobilization assay. The series is classed as cell-based. The note with it: IC50 relative to 2.
T1 sequence (P21554 whole entry): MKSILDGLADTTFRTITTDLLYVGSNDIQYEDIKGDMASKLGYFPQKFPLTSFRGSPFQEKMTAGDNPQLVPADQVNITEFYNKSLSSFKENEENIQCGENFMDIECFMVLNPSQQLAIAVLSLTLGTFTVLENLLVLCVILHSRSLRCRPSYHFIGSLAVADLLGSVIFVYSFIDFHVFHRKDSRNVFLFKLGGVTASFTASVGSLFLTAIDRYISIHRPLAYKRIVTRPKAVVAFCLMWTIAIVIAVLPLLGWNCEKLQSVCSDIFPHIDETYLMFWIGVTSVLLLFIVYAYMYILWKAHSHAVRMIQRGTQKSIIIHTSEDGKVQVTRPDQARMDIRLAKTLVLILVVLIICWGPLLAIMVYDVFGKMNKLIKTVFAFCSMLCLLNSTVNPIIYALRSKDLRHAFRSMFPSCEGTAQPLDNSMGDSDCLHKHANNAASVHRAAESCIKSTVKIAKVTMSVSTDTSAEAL
Series [3] has as its target T1, CB1. The conditions noted are these: absence of CP55,940; up to 10 μM.
The test system of another series is male Sprague-Dawley rats. As to the kind of experiment: Drug-induced reinstatement of extinguished cocaine-seeking behavior. The series is classed as in vivo, rat. The note with it: 10 mg/kg i.p. pretreatment, cocaine prime 10 mg/kg i.p., p > 0.05.
The subject of a further series is P-gp (MDR1). Nature of the series: in vitro. The conditions noted are these: dog, MDCK-MDR1, pH 7.4.

On to `CCc1c(C(=O)NCCc2ccc(N3CCCCC3)cc2)[nH]c2ccc(Cl)cc12` [Compound 1], for which, in the series with rats, the “seeking drugs of abuse (cocaine or methamphetamine) after a period of extinction” value (“seeking drugs of abuse” for short) is recorded as “less likely to seek drugs of abuse”.
For the compound `O=C(Nc1ccc(Cl)cc1)Nc1cccc(-c2cccc(N3CCCC3)n2)c1` [Compound 2, 1-(4-chlorophenyl)-3-{3-[6-(pyrrolidin-1-yl)pyridin-2-yl]phenyl}urea], in the series “Kinetic solubility”, the solubility at 2 h is below 1 µM. Further, the “seeking drugs of abuse” value in the series with rats is “less likely to seek drugs of abuse”.
In the case of `N#Cc1ccc(NC(=O)Nc2cccc(-c3cccc(N4CCCC4)n3)c2)cc1` [Compound 3], in series [1], the “effect on THC in drug discrimination” value is recorded as “reduced THC’s potency”.
For `O=C(Nc1ccc(Cl)cc1)Nc1cccc(-c2ccc(F)cc2)c1` [Compound 4], in the series on rats, the “prime-induced reinstatement of cocaine seeking” value was “attenuated prime-induced restatement of cocaine seeking” and the “seeking drugs of abuse” value is recorded as “less likely to seek drugs of abuse”.
As for `O=C(Nc1ccc(Cl)cc1)Nc1cc(-c2ccccc2)ccn1` [Compound 7, 1‐(4‐Chlorophenyl)‐3‐(4‐phenylpyridin‐2‐yl)urea], the “fold less potent than 2 in calcium assay” value on CB1 [2] came to 4.7 fold.
Still for that read-out and setting: in the case of `O=C(Nc1ccc(Cl)cc1)Nc1cncc(-c2ccccc2)c1` [Compound 9, 1‐(4‐Chlorophenyl)‐3‐(5‐phenylpyridin‐3‐yl)urea] it was 8.8 fold.
Same read-out and setting: in the case of `O=C(Nc1ccc(Cl)cc1)Nc1ccnc(-c2ccccc2)c1` [Compound 10, 1‐(4‐Chlorophenyl)‐3‐(2‐phenylpyridin‐4‐yl)urea] it was 7.1 fold.
`O=C(Nc1ccc(Cl)cc1)Nc1ccc(-c2ccccc2)s1` [Compound 11, 1‐(4‐Chlorophenyl)‐3‐(5‐phenylthiophen‐2‐yl)urea]: the “inverse agonism (in words)” value on CB1 [3] was “very little inverse agonism”. For the same compound, the “effect on drug-induced cocaine-seeking behavior” value with male Sprague-Dawley rats is on record as “failed to significantly reduce”. For the same compound, the efflux ratio at 10 μM in the series on P-gp (MDR1) was below 2.5.

For orientation: solubility means how much of the substance goes into solution per volume. Read a high solubility as a readily soluble substance. For orientation: efflux ratio means the permeability from basolateral to apical divided by that in the opposite direction, in the common usage.
